Experiment: Solubility test in organic solvents
Format: physicochemical
Settings: for Methylene chloride (g): amount of solvent required to completely dissolve 1 g of the tested compound / Tetrahydrofuran (g): amount of solvent required to completely dissolve 1 g of the tested compound: room temperature, 1 g compound
Description: 1 g of a compound to be tested was poured into a test tube with stirring at room temperature and solvents listed in Table 1 were slowly added drop by drop. The amounts of the solvents required to completely dissolve 1 g of the tested compound were measured.

| Structure (SMILES) | Methylene chloride (g): amount of solvent required to completely dissolve 1 g of the tested compound [g] | Tetrahydrofuran (g): amount of solvent required to completely dissolve 1 g of the tested compound [g] | solubility in organic solvents (in words) |
| --- | --- | --- | --- |
| CCCCN1C(=O)c2ccc3c4c(ccc(c24)C1=O)C(=O)N(C(C)c1ccccc1)C3=O (stereo not shown) [Compound (4)] | 1.5 | 12 | – |
| CCCCN1C(=O)c2ccc3c4c(ccc(c24)C1=O)C(=O)N(C(CC)c1ccccc1)C3=O (stereo not shown) [Compound (12)] | 1.3 | 7 | – |
| CC(c1ccccc1)N1C(=O)c2ccc3c4c(ccc(c24)C1=O)C(=O)N(C(C)c1ccccc1)C3=O (stereo not shown) [Compound (30)] | 3.5 | 50 | poor solubility |
| CCCCN1C(=O)c2ccc3c4c(ccc(c24)C1=O)C(=O)N(CCCC)C3=O [Compound (40)] | 17 | 74 | very poor solubility |

From patent US7494754B2, “Electrophotographic photoreceptor containing asymmetric naphthalenetetracarboxylic acid diimide derivatives and electrophotographic imaging apparatus employing the same” (Samsung Electronics Co., Ltd., priority 2005, dated 2009)
